In patent publication US4988828A, “Phenoxypropyl derivatives” (Fujirebio Kabushiki Kaisha, priority 1987, dated 1991):

Legend:
stomach = assay: Gastric mucosal protecting activity (ulcer caused by 0.4N-HCl+50% ethanol); assay type: in vivo, rat (male Donryu); settings: 30 minutes before necrotizing substance
Protocol: Male Donryu rats (150 to 250 g) which had been caused to fast for 24 hours were used. The test compound was administered in a dose of 10 mg/kg. p.o., and 30 minutes later, a necrotizing substance (0.4N-HCl+50% ethanol) was administered orally in a dose of 5 ml/kg. One hour after the administration of the necrotizing substance, the stomach was dissected out and fixed with formalin. The area of ulcer which occurred was measured, and by comparison with a control group, the percent inhibition of the test compound was determined.

histamine H2 receptor = target: T1, histamine H2 receptor (Cavia porcellus, UniProt P47747); assay: Histamine H2 antagonizing activity (isolated guinea pig right atrium, histamine dose-response); set-up: species or system guinea pig (Hartley-strain); settings: 32° C., test compound 1×10^-6, 1×10^-7 M, 10 min before histamine, Van Rossum method, read-out: pA2 (converted)
T1 construct: The right atrium was isolated in the Krebs-Henselite solution; from tissue; host or cells: isolated right atrium of male Hartley-strain guinea pigs
T1 sequence (P47747 whole entry): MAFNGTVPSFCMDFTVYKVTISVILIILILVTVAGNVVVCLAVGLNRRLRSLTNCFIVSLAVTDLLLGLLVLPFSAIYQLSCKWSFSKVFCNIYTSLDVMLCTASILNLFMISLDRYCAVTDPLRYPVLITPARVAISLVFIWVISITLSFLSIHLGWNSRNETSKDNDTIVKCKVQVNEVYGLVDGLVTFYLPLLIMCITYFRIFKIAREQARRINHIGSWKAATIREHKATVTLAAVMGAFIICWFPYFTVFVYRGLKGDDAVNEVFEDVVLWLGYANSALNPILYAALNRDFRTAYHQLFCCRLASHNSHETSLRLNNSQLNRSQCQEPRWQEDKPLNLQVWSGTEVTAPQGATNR
Protocol: Hartley-strain guinea pigs (male, weight 300 to 350 g) were killed by a blow on the head, and the heart was extracted. The right atrium was isolated in the Krebs-Henselite solution through which a mixed gas (O2 95%, CO2 5%) was circulated. The right atrium was suspended in an organ bath (30 ml) filled with the Krebs-Henselite solution kept at 32° C. The mixed gas was circulated through the organ bath, and a diastolic tension of 1 g was maintained. Contraction of the right atrium was recorded by a force-displacement transducer, and the heart rate was counted by a heart rate meter interlocked with the transducer.
Histamine (used in the form of dihydrochloride) was added cumulatively to the organ bath in a concentration of 1×10^-8 M to 3×10^-5 M. Thus, the dose-response curve of histamine was obtained. The inside of the organ bath was washed several times, and the test compound (1×10^-6, 1×10^-7 M) was added to the organ bath. Ten minutes later, the dose-response curve of histamine in the presence of the test compound was obtained.
The pA2 value of the test compound was determined from the first histamine dose-response curve and the histamine dose-response curve in the presence of the test compound by the method of J. M. Van Rossum (Arch. Int. Pharmacodyn. Ther., 143-299, 1963).

Row | SMILES | Percent inhibition (area of ulcer, vs control group) (stomach; 10 mg/kg p.o.) | Percent inhibition (area of ulcer, vs control group) (stomach; 30 mg/kg p.o.) | Kb (histamine H2 receptor)
1 | O=C(CSCc1ccco1)NCCCOc1cccc(CN2CCCCC2)c1 [Example 12, N-(3-[3-(piperidinomethyl)phenoxy]propyl)-2-(furfurylthio)acetamide] | 63% | – | –
2 | CN/C(=N/CCSCc1nc[nH]c1C)NC#N [cimetidine, reference compound] | No inhibition was observed | 11% | –
3 | O=C(C[S+]([O-])Cc1ccco1)NCCCOc1cccc(CN2CCCCC2)c1 (centres unmarked) [Example 13, N-{3-[3-(piperidinomethyl)phenoxy]propyl}-2-(furfurylsulfinyl)acetamide] | 72% | – | 79.4 nM
